Measurements published in patent US20040074272A1, “Controlled release urea product and method of preparing said product” (priority 2001, published 2004).

Columns and labels:
[1] = feeding trial in sheep fitted with rumen cannulae, rumen ammonia profile; format: in vivo
Protocol: Samples consisted of prilled urea-cement matrix coated with a primer of the type oxychloride cement followed by 3 or 4 layers of rosin and calcium carbonate.
The experiment was carried out with sheep fitted with rumen cannulae. Sheep were fed on a control diet of 63% grass hay and 37% of unmollassed sugarbeet pulp. Control diet was then supplemented with 1.3% urea (or urea equivalent in the is form of a controlled-release product) and added directly into the rumen to avoid excess chewing, which is known to be more intense in sheep compared to cattle. Data from the feeding trials are described in Table 4 and FIG. 3.

[2] = in vitro solubility assay of urea in water at 39° C.; format: physicochemical; settings: 50 mg urea in 50 ml water at 39° C.
Protocol: The coating layers consisted of rosin only or a combination of primer and rosin. […] Fifty mg urea was incubated in 50 ml water at 39° C. Samples (1 ml) were taken after 1, 2, 4 and 7.5 h incubation. Urea concentration was estimated by spectrophotometry.

Question: What does the source list for NC(N)=O [Urea, urea]?
Answer: Rumen ammonia ([1]; 0 h after feeding, diet supplemented with 1.3% urea or urea equivalent, added directly into the rumen): 8.8 mg N/100 ml; Rumen ammonia ([1]; 1 h after feeding, 1.3% urea or urea equivalent into the rumen): 33.3 mg N/100 ml; Rumen ammonia ([1]; 2 h after feeding, 1.3% urea or urea equivalent into the rumen): 25.0 mg N/100 ml; Rumen ammonia ([1]; 4 h after feeding, 1.3% urea or urea equivalent into the rumen): 10.7 mg N/100 ml; Rumen ammonia ([1]; 8 h after feeding, 1.3% urea or urea equivalent into the rumen): 6.6 mg N/100 ml; Rumen ammonia ([1]; 12 h after feeding, 1.3% urea or urea equivalent into the rumen): 9.0 mg N/100 ml; Urea solubilized (%) ([2]; incubation time 1 h): 98.9%; Urea solubilized (%) ([2]; incubation time 2 h): 100.1%; Urea solubilized (%) ([2]; incubation time 4 h): 99.3%; Urea solubilized (%) ([2]; incubation time 7.5 h): 100.6%
